Reference: the NIST ThermoML archive (doi:10.1016/j.fluid.2008.08.015)
± gives the expanded uncertainty stated by the source.

Conditions: 295 K; for surface tension liquid-gas: Maximal bubble pressure; for mass density / viscosity: 101.33 kPa, Liquid; for mass density: Buoyancy - hydrostatic balance with magnetic suspension - one sinker; for viscosity: Concentric cylinders viscometry

With OCCO [1,2-ethanediol] as the compound, how does the surface tension liquid-gas read?
The surface tension liquid-gas was 47.95 ± 2.4 mN/m.

What about the mass density of the same compound?
Its mass density is 1120.7 ± 22 kg/m3.

And the viscosity?
The viscosity was 21.26 ± 3.1 mPa·s.

With OCC(O)CO [glycerol] as the compound, how does the surface tension liquid-gas read?
Its surface tension liquid-gas is 62.87 ± 1.4 mN/m.

And the mass density?
Its mass density is 1267.4 ± 25 kg/m3.

What about the viscosity of the same compound?
Its viscosity is 1499.5 ± 190 mPa·s.
